For assay [1], the target named is NRAS WT (Homo sapiens (Human), UniProt P01111+P62937). Description: Ras-Raf disruption/FRET/MOA assay, NRAS WT. The assay is classed as biochemical. The source says: (§1) Disruption of B-Raf Ras-Binding Domain (BRAF^RBD) Interaction with K-Ras by Compounds of the Invention (Also Called a FRET Assay or an MOA Assay)
(§2) Note—The following protocol describes a procedure for monitoring disruption of K-Ras G12C (GMP-PNP) binding to BRAF^RBD by a compound of the invention. This protocol may also be executed substituting other Ras proteins or nucleotides, such as K-Ras G12D and K-Ras G13D.
(§3) The purpose of this biochemical assay was to measure the ability of test compounds to facilitate ternary complex formation between a nucleotide-loaded K-Ras isoform and Cyclophilin A; the resulting ternary complex disrupts binding to a BRAF^RBD construct, inhibiting K-Ras signaling through a RAF effector. Data is reported as IC50 values.
(§4) In assay buffer containing 25 mM HEPES pH 7.3, 0.002% Tween20, 0.1% BSA, 100 mM NaCl and 5 mM MgCl2, tagless Cyclophilin A, His6-K-Ras-GMPPNP, and GST-BRAF^RBD were combined in a 384-well assay plate at final concentrations of 25 μM, 12.5 nM, and 50 nM, respectively. Compound was present in plate wells as a 10-point 3-fold dilution series starting at a final concentration of 30 μM. After incubation at 25° C. for 3 hours, a mixture of anti-His Eu—W1024 and anti-GST allophycocyanin was then added to assay sample wells at final concentrations of 10 nM and 50 nM, respectively, and the reaction incubated for an additional 1.5 hours. […] Compounds that facilitate disruption of a K-Ras: RAF complex were identified as those eliciting a decrease in the TR-FRET ratio relative to DMSO control wells.

The target in assay [2] is NRAS Q61R (Homo sapiens (Human), UniProt P01111+P62937, Q61R). The experiment in a line: Ras-Raf disruption/FRET/MOA assay, NRAS Q61R. The assay is classed as biochemical.
Excerpt: as §1, §2, §3, §4

Assay [3] has as its target NRAS Q61K (Homo sapiens (Human), UniProt P01111+P62937, Q61K). Description: Ras-Raf disruption/FRET/MOA assay, NRAS Q61K. Format: biochemical.
Excerpt: as §1, §2, §3, §4

Assay [4] addresses KRAS G12V (Homo sapiens (Human), UniProt P01116+P62937, G12V). The experiment in a line: Ras-Raf disruption/FRET/MOA assay, KRAS G12V. Format: biochemical. The essentials:
(§5)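 Measured by TR-FRET: a decrease relative to DMSO indicates disruption of GMPPNP-Ras binding to BRAF^RBD, mediated by Cyclophilin A (25 μM). Compound was tested as a dilution series up to 30 μM with 3 h preincubation at 25° C.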

For assay [5], the target named is KRAS G12C (Homo sapiens (Human), UniProt P01116+P62937, G12C). The experiment in a line: Ras-Raf disruption/FRET/MOA assay, KRAS G12C. The assay is classed as biochemical. The method in brief:
as §5

The test system of assay [6] is AsPC-1 (K-Ras G12D). The experiment in a line: Potency assay: pERK. Format: cell-based, human. As to conditions: Homo sapiens, ASPC1; AsPC-1 KRAS G12D; read-out: pERK EC50. The method in brief:
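pERK decrease measured after 4 h compound treatment at 37 °C (10 three-fold dilutions, duplicate wells), by either fixed-cell In-Cell Western with DRAQ5 counterstain or AlphaLISA on lysates. Signal fitted against log concentration with a four-parameter model to give IC50.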

Assay [7] addresses NRAS G12C (Homo sapiens (Human), UniProt P01111+P62937, G12C). Description: Ras-Raf disruption/FRET/MOA assay, NRAS G12C. The assay is classed as biochemical. The method in brief: as §5
In assay [8] the target is KRAS G13D (Homo sapiens (Human), UniProt P01116+P62937, G13D). The experiment in a line: Ras-Raf disruption/FRET/MOA assay, KRAS G13D. Format: biochemical. The essentials: as §5
For assay [9], the target named is KRAS Q61H (Homo sapiens (Human), UniProt P01116+P62937, Q61H). The experiment in a line: Ras-Raf disruption/FRET/MOA assay, KRAS Q61H. The assay is classed as biochemical.
Excerpt: as §1, §2, §3, §4

For assay [10], the target named is KRAS G13C (Homo sapiens (Human), UniProt P01116+P62937, G13C). The experiment in a line: Ras-Raf disruption/FRET/MOA assay, KRAS G13C. The assay is classed as biochemical. The essentials: as §5
Assay [11] concerns the target KRAS WT (Homo sapiens (Human), UniProt P01116+P62937). The experiment in a line: Ras-Raf disruption/FRET/MOA assay, KRAS WT. The assay is classed as biochemical. The method in brief: as §5
Assay [12] has as its target KRAS G12S (Homo sapiens (Human), UniProt P01116+P62937, G12S). Description: Ras-Raf disruption/FRET/MOA assay, KRAS G12S. The assay is classed as biochemical. The essentials: as §5
In assay [13] the target is KRAS G12D (Homo sapiens (Human), UniProt P01116+P62937, G12D). Description: Ras-Raf disruption/FRET/MOA assay, KRAS G12D. Format: biochemical. The method in brief:
as §5

Where two headings read alike, the source gives them in different places.

We go through 9 molecules from US20250195521A1 (Revolution Medicines, Inc., priority 2020, published 2025).

Chain of NRAS WT (P01111 whole entry, the tested form may be a part): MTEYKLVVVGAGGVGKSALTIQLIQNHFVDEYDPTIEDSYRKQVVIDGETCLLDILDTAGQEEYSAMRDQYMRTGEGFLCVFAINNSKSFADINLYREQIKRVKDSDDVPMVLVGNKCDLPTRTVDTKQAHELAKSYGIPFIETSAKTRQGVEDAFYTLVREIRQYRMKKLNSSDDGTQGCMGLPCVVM
Chain of NRAS WT (P62937 whole entry, the tested form may be a part): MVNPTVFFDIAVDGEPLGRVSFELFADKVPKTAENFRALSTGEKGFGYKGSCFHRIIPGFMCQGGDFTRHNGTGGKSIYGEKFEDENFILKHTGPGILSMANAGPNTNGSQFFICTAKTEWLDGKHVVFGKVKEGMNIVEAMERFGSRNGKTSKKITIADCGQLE
Chain of KRAS G12D (P01116 other isoform, or with tags, fused parts or gaps G12D): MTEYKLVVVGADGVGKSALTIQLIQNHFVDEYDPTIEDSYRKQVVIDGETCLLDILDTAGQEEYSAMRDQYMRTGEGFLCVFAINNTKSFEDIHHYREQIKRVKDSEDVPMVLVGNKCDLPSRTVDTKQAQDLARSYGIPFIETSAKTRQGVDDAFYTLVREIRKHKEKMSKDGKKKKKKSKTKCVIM
Chain of KRAS G12D (P62937 whole entry): as the sequence (P62937 whole entry, the tested form may be a part) above
Chain of KRAS G12S (P01116 other isoform, or with tags, fused parts or gaps G12S): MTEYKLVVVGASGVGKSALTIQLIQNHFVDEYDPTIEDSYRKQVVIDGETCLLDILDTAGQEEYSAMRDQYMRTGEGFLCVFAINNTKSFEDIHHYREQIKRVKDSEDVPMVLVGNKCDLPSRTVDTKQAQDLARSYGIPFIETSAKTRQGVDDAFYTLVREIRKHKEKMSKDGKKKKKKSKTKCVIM
Chain of KRAS G12S (P62937 whole entry): as the sequence (P62937 whole entry, the tested form may be a part) above
Chain of KRAS G13D (P01116 other isoform, or with tags, fused parts or gaps G13D): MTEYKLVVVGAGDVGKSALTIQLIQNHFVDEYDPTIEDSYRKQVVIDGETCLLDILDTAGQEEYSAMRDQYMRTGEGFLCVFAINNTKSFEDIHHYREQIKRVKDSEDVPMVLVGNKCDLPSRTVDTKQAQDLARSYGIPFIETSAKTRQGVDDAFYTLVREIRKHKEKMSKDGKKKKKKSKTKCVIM
Chain of KRAS G13D (P62937 whole entry): as the sequence (P62937 whole entry, the tested form may be a part) above
Chain of NRAS Q61R (P01111 whole entry Q61R): as the sequence (P01111 whole entry, the tested form may be a part) above, with Q61R counted along it
Chain of NRAS Q61R (P62937 whole entry): as the sequence (P62937 whole entry, the tested form may be a part) above
Chain of KRAS G13C (P01116 other isoform, or with tags, fused parts or gaps G13C): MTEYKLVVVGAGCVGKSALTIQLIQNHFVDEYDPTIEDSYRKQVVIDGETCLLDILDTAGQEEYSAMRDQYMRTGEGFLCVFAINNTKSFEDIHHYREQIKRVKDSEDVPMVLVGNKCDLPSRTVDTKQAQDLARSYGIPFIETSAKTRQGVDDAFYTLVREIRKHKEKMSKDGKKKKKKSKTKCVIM
Chain of KRAS G13C (P62937 whole entry): as the sequence (P62937 whole entry, the tested form may be a part) above
Chain of KRAS WT (P01116 other isoform, or with tags, fused parts or gaps): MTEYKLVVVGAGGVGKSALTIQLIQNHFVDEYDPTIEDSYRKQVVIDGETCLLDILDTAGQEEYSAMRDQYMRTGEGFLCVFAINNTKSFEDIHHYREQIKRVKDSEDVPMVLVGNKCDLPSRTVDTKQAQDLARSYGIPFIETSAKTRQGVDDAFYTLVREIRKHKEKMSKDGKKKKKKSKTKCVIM
Chain of KRAS WT (P62937 whole entry): as the sequence (P62937 whole entry, the tested form may be a part) above
Chain of KRAS G12V (P01116 other isoform, or with tags, fused parts or gaps G12V): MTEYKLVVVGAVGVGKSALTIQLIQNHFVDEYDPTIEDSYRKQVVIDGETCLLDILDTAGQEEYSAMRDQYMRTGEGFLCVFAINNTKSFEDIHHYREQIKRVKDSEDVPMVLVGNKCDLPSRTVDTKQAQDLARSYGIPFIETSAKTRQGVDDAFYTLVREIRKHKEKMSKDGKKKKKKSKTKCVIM
Chain of KRAS G12V (P62937 whole entry): as the sequence (P62937 whole entry, the tested form may be a part) above
Chain of KRAS G12C (P01116-2 other isoform, or with tags, fused parts or gaps G12C): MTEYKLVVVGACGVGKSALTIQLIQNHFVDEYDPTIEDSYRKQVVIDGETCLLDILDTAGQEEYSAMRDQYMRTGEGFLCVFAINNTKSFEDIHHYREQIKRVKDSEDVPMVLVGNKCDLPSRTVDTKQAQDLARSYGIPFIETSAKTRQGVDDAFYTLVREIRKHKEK
Chain of KRAS G12C (P62937 whole entry): as the sequence (P62937 whole entry, the tested form may be a part) above
Chain of NRAS G12C (P01111 whole entry G12C): as the sequence (P01111 whole entry, the tested form may be a part) above, with G12C counted along it
Chain of NRAS G12C (P62937 whole entry): as the sequence (P62937 whole entry, the tested form may be a part) above
Chain of NRAS Q61K (P01111 whole entry Q61K): as the sequence (P01111 whole entry, the tested form may be a part) above, with Q61K counted along it
Chain of NRAS Q61K (P62937 whole entry): as the sequence (P62937 whole entry, the tested form may be a part) above
Chain of KRAS Q61H (P01116 other isoform, or with tags, fused parts or gaps Q61H): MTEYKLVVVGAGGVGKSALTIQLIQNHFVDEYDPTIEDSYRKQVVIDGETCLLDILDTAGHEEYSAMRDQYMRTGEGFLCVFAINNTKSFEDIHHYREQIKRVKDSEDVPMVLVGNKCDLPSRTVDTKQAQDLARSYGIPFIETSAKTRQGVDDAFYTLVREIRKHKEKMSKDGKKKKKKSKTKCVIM
Chain of KRAS Q61H (P62937 whole entry): as the sequence (P62937 whole entry, the tested form may be a part) above

`CCn1c(-c2cccnc2[C@H](C)OC)c2c3cc(ccc31)-c1cc(O)cc(c1)C[C@H](NC(=O)[C@H](C(C)C)N(C)C(=O)[C@H]1CCCN(C(=O)[C@@H]3CN3)C1)C(=O)N1CCC[C@H](N1)C(=O)OCC(C)(C)C2` (atropisomer, axis not shown) [Example 238]: the IC50 – broadly, the concentration at which inhibition is half-maximal – in [1] (read-out: NRAS WT FRET IC50) lay within 10 to 100 nM; in [2] (read-out: NRAS Q61R FRET data IC50), 100 to 1000 nM; in [3] (read-out: NRAS Q61K FRET data IC50) it was 100 to 1000 nM.

For `CCn1c(-c2cccnc2[C@H](C)OC)c2c3cc(ccc31)-c1cc(O)cc(c1)C[C@H](NC(=O)[C@H](C(C)C)N(C)C(=O)[C@@]1(C)CCCN1C(=O)[C@H]1CN1)C(=O)N1CCC[C@H](N1)C(=O)OCC(C)(C)C2` [Example 239], the IC50 in assay [1], in assay [4], in [5], in [7], in [8] and in [9] was 10 to 100 nM each time. The IC50 in assay [2] is 100 to 1000 nM; in assay [10], 10 to 100 nM; in [11], 10 to 100 nM; in assay [12], 10 to 100 nM; in assay [3], 100 to 1000 nM; in assay [13] it was 100 to 1000 nM. In addition, the EC50 (as a rule, the midpoint of the concentration-response curve) in assay [6] was below 5 µM.

As for `CCn1c(-c2cccnc2[C@H](C)OC)c2c3cc(ccc31)-c1cc(O)cc(c1)C[C@H](NC(=O)[C@@H](C(C)C)N(C)C(=O)[C@@]1(C)CCCN1C(=O)[C@H]1CN1)C(=O)N1CCC[C@H](N1)C(=O)OCC(C)(C)C2` [Example 240], the IC50 in assay [1] was 1000 to 10000 nM; in assay [4], 1000 to 10000 nM; in assay [5] it was 100 to 1000 nM; in assay [7], 100 to 1000 nM; in assay [8], 1000 to 10000 nM; in [9], 100 to 1000 nM. The half-maximal inhibitory concentration (IC50) is 1000 to 10000 nM in [2]; 1000 to 10000 nM in assay [10]; 100 to 1000 nM in assay [11]; 1000 to 10000 nM in assay [12]; above 10000 nM in assay [3]; 1000 to 10000 nM in [13]. The EC50 in assay [6] was below 5 µM.

As to `CCn1c(-c2cccnc2[C@H](C)OC)c2c3cc(ccc31)-c1cc(O)cc(c1)C[C@H](NC(=O)[C@H](C(C)C)N(C)C(=O)[C@@]1(C)CCCN1C(=O)[C@@H]1CN1)C(=O)N1CCC[C@H](N1)C(=O)OCC(C)(C)C2` [Example 241], the IC50 in assay [1] was 10 to 100 nM; in assay [4], 10 to 100 nM; in [5] it was below 10 nM; in assay [7], below 10 nM; in assay [8], 10 to 100 nM; in assay [9], 10 to 100 nM. For the same molecule, the IC50 is 100 to 1000 nM in assay [2]; 10 to 100 nM in assay [10]; 10 to 100 nM in assay [11]; 10 to 100 nM in [12]; 100 to 1000 nM in assay [3]; 10 to 100 nM in assay [13]. The EC50 in assay [6] was below 5 µM.

In the case of `CCn1c(-c2cccnc2[C@H](C)OC)c2c3cc(ccc31)-c1cc(O)cc(c1)C[C@H](NC(=O)[C@@H](C(C)C)N(C)C(=O)[C@@]1(C)CCCN1C(=O)[C@@H]1CN1)C(=O)N1CCC[C@H](N1)C(=O)OCC(C)(C)C2` [Example 242], the IC50 is 100 to 1000 nM in [1]; 1000 to 10000 nM in assay [4]; 100 to 1000 nM in assay [5]; 100 to 1000 nM in assay [7]; 100 to 1000 nM in [8]; 100 to 1000 nM in assay [9]. Moreover, the IC50 is 1000 to 10000 nM in assay [2]; 1000 to 10000 nM in assay [10]; 100 to 1000 nM in [11]; 100 to 1000 nM in [12]; 1000 to 10000 nM in assay [3]; 100 to 1000 nM in assay [13]. Also, the EC50 in assay [6] was below 5 µM.

Turning to `CCn1c(-c2cccnc2[C@H](C)OC)c2c3cc(ccc31)-c1cc(O)cc(c1)C[C@H](NC(=O)[C@H](C(C)C)N(C)C(=O)[C@]1(C)CCCN1C(=O)[C@H]1CN1)C(=O)N1CCC[C@H](N1)C(=O)OCC(C)(C)C2` [Example 243], the IC50 in assay [1] fell in the range of 100 to 1000 nM; in [4], 100 to 1000 nM; in assay [5] it was 10 to 100 nM; in assay [7], 10 to 100 nM; in assay [8], 100 to 1000 nM; in [9], 100 to 1000 nM. The IC50 in [2] is 1000 to 10000 nM; in [10], 100 to 1000 nM; in assay [11], 100 to 1000 nM; in [12], 100 to 1000 nM; in [3], 1000 to 10000 nM; in assay [13], 100 to 1000 nM. Further, the EC50 in assay [6] is below 5 µM.

On to `CCn1c(-c2cccnc2[C@H](C)OC)c2c3cc(ccc31)-c1cc(O)cc(c1)C[C@H](NC(=O)[C@H](C(C)C)N(C)C(=O)[C@]13C[C@H]1CCN3C(=O)[C@H]1CN1)C(=O)N1CCC[C@H](N1)C(=O)OCC(C)(C)C2` [Example 244], for which the IC50 in assay [1] lay within 100 to 1000 nM; in [4] it was 100 to 1000 nM; in assay [5], 10 to 100 nM; in [7] it was 10 to 100 nM; in [8] it was 100 to 1000 nM; in [9], 10 to 100 nM. Moreover, the IC50 in assay [2] was 100 to 1000 nM; in assay [10], 100 to 1000 nM; in [11], 100 to 1000 nM; in [12], 100 to 1000 nM; in [3], 1000 to 10000 nM; in [13] it was 100 to 1000 nM.

As to `CCn1c(-c2cccnc2[C@H](C)OC)c2c3cc(ccc31)-c1cc(O)cc(c1)C[C@H](NC(=O)[C@H](C(C)C)N(C)C(=O)[C@@H]1CO[C@H](C)CN1C(=O)[C@H]1CN1)C(=O)N1CCC[C@H](N1)C(=O)OCC(C)(C)C2` [Example 248], the IC50 in [1], in assay [4], in assay [5], in [7], in assay [8] and in assay [9] was 10 to 100 nM in each case. The IC50 in assay [2] lay in the range of 100 to 1000 nM; in assay [10], 10 to 100 nM; in assay [11], 10 to 100 nM; in [12] it was 10 to 100 nM; in [3], 100 to 1000 nM; in [13], 10 to 100 nM.

In the case of `CCn1c(-c2cccnc2[C@H](C)OC)c2c3cc(ccc31)-c1cc(O)cc(c1)C[C@H](NC(=O)[C@H](C(C)C)N(C)C(=O)[C@@H]1CO[C@H](C)CN1C(=O)[C@@H]1CN1)C(=O)N1CCC[C@H](N1)C(=O)OCC(C)(C)C2` [Example 249], the IC50 is 10 to 100 nM in assay [1]; 10 to 100 nM in assay [4]; below 10 nM in [5]; below 10 nM in assay [7]; 10 to 100 nM in assay [8]; below 10 nM in [9]. Also, the IC50 in [2], in assay [10], in assay [11], in assay [12], in [3] and in [13] was 10 to 100 nM in each case.
